Among the data in US20050059710A1, “Diphenylamino ketone derivatives as MEK inhibitors” (Pfizer Inc, priority 2003, published 2005) are melting point and IC50 values, retold here.

The subject of series [1] is MEK. Description: Cellular assay for MEK inhibition: ERK phosphorylation in C26 cells (C26CPA1). The format is cell-based. As to conditions: inhibition of ERK phosphorylation, murine colon 26 (C26) carcinoma cells, one hour at 37° C. As for the experimental part: (§1) Cellular Assay for Measuring MEK Inhibition
(§2) MEK inhibitors were evaluated by determining their ability to inhibit phosphorylation of MAP kinase (ERK) in murine colon 26 (C26) carcinoma cells. Since ERK1 and ERK2 represent the only known substrates for MEK1and MEK2, the measurement of inhibition of ERK phosphorylation in cells provides direct read out of cellular MEK inhibition by the compounds of the invention. Detection of phosphorylation of ERK was carried out either by Western blot or ELISA format. Briefly, the assays involve treatment of exponentially growing C26 cells with varying concentrations of the test compound (or vehicle control) for one hour at 37° C. For Western blot assay, cells were rinsed free of compound/vehicle and lysed in a solution containing 70 mM NaCl, 50 mM glycerol phosphate, 10 mM HEPES, pH 7.4, 1% Triton X-100, 1 mM Na3VO4, 100 μM PMSF, 10 μM leupeptin and 10 μM pepstatin. Supernatants were then subjected to gel electrophoresis and hybridized to a primary antibody recognizing dually phosphorylated ERK1 and ERK2. To evaluate total MAPK levels, blots were subsequently ‘stripped’ and re-probed with a 1:1 mixture of polyclonal antibodies recognizing unphosphorylated ERK1 and ERK2. For pERK ELISA assay, pERK TiterZyme Enzyme immunometric Assay kits were acquired from Assay Designs, Inc (Ann Arbor, Mich.). […]

In series [2] the test system is MEK. The series is described as follows: Cellular assay for MEK inhibition: ERK phosphorylation in C26 cells, pERK ELISA format (C26ELSA). The format is cell-based. As to conditions: inhibition of ERK phosphorylation, murine colon 26 (C26) carcinoma cells, one hour at 37° C. On the procedure: as §1, §2
In general terms: In an ELISA, binding on a coated surface is turned into a signal by an enzyme label.

In general, melting point refers to the temperature, or range, at which the solid turns liquid. For the compound `C#Cc1ccc(Nc2c(C(=O)c3nccn3C)ccc(F)c2F)c(F)c1` [Example 4, [2-(4-Ethynyl-2-fluoro-phenylamino)-3,4-difluoro-phenyl]-(1-methyl-1H-imidazol-2-yl)-methanone], the melting point came to 166 °C.
What is called IC50 is the concentration that inhibits the measured activity by half. Read a low IC50 as greater potency in that assay. With `Cc1coc(C(=O)c2ccc(F)c(F)c2Nc2ccc(I)cc2F)n1` [Example 5, [3,4-Difluoro-2-(2-fluoro-4-iodo-phenylamino)-phenyl]-(4-methyl-oxazol-2-yl)-methanone], the melting point stood at 127 °C. Further, the IC50 in the series on MEK [1] is 287 nM.
As for `C#Cc1ccc(Nc2c(C(=O)c3ccccn3)ccc(F)c2F)c(F)c1` [Example 2, [2-(4-Ethynyl-2-fluoro-phenylamino)-3,4-difluoro-phenyl]-pyridin-2-yl-methanone], the melting point is 109 to 111 °C.
Compound `O=C(CO)c1ccc(F)c(F)c1Nc1ccc(I)cc1F` [Example 1, 1-[3,4-Difluoro-2-(2-fluoro-4-iodo-phenylamino)-phenyl]-2-hydroxy-ethanone] came in with a melting point of 128 to 128.5 °C. In addition, the IC50 with MEK [1] turned out to be 6.5 nM. The compound further returned an IC50 in the series with MEK [2] of 20 nM.
In the case of `C#Cc1ccc(Nc2c(C(C)=O)ccc(F)c2F)c(F)c1` [Example 10, 1-[2-(4-Ethynyl-2-fluoro-phenylamino)-3,4-difluoro-phenyl]-ethanone], the melting point was 78 to 80 °C.
`C#Cc1ccc(Nc2c(C(=O)c3nccs3)ccc(F)c2F)c(F)c1` [Example 3, [2-(4-Ethynyl-2-fluoro-phenylamino)-3,4-difluoro-phenyl]-thiazol-2-yl-methanone] yielded a melting point of 161 °C.
